Test results: publication PMC10564737, “Structure-based design of a phosphotyrosine-masked covalent ligand targeting the E3 ligase SOCS2” (Nature Communications, 2023)
“And” between values parts separate entries of the source, which are not always exact repeats. Equal entries are not always repeated.

Target: T1, SBC2 (Homo sapiens, UniProt O14508)
T1 construct: SOCS2 (amino acids 32–198); His6 (N, cleaved yes); made in house; host or cells: E. coli BL21(DE3)
Assay: Covalent fluorescence polarization (FP) probe displacement assay
Assay type: binding
Details: for Anisotropy based on Raw Data (485): Cycle 7 (30 min)
Source text: With the specific covalent modification of Cys111 established, we decided to fully characterize MN551 as a covalent SOCS2 inhibitor. […] (Fig. 2g, h, Supplementary Fig. 9). Due to the covalent nature of the competing inhibitor, a time-dependent reduction in the fraction of protein-bound probe is observed. […] This value illustrates reasonable specificity for a covalent inhibitor, with nonetheless scope for future optimization. In addition to characterizing the kinetic covalency parameters, we have also assessed the stability of the MN551 by monitoring its reactivity (half-life >70 min) with reduced glutathione (GSH) (Supplementary Fig. 10)[35].
To monitor the SBC2-ligand binding kinetics we designed a fluorescein-labeled small-molecule probe - compound 26. The fluorescence polarization (anisotropy) of a threefold serial dilution of 50 µM SBC2 in 10 nM of the probe in 100 mM HEPES pH 7.5, 50 mM NaCl, 0.5 mM TCEP, 2% DMSO was measured to determine the KL (Supplementary Fig. 9A) (BMG Labtech PHERAstar – firmware v1.33). Protein titration and the curves were fitted using GraphPad Prism 9, using one-site fitting models to determine the probe binding constant, KL. Samples were run in triplicate in 384 well plates, using a total volume per well of 16 μL. The bound fraction of the probe is measure using the equation:1 Fb=Af−A/Af−Ab Where,
A time-dependent reduction in probe anisotropy were measured for a 2-fold serial dilution of […] compound MN551 in 10 nM probe +300 μM SBC2. To determine the initial reversible binding affinity, the initial bound fraction of the probe at time = 0, Fbo (the y-intercept in Fb v/s Time plot, Supplementary Fig. 9B) was plotted against MN551 concentration, and the obtained IC50 is then converted to Ki (Supplementary Fig. 9C)[17]. The slope from Fb versus time graph when divided by Fbo gives rate of covalency, kobs. A plot of kobs v/s MN551 concentration using Michaelis–Menten model of GraphPad Prism 9, provides the parameters kinact (maximum potential rate of inactivation) and KI (concentration of MN551 at which kobs = kinact/2) (Supplementary Fig. 9D, E).
The observed first-order rate constant, kobs is related to KI and kinact by the equation:2 kobs=kinactI/KI+I
At [I]«[KI] the above equation is converted to3 […]
The slope from the plot of kobs against concentration of MN551 gives us the covalent efficiency parameter kinact/KI (Supp Fig. 9F)[30],[33].

[1] = MN551 48.4003 nM, Cycle 12 (55 min)
[2] = MN551 67.7604 nM, Cycle 12 (55 min)
[3] = MN551 94.8645 nM, Cycle 12 (55 min)
[4] = MN551 132.81 nM, Cycle 6 (25 min)
[5] = MN551 132.81 nM, Cycle 12 (55 min)
[6] = MN551 185.934 nM, Cycle 6 (25 min)
[7] = MN551 185.934 nM, Cycle 12 (55 min)

T1 sequence (O14508 32-198): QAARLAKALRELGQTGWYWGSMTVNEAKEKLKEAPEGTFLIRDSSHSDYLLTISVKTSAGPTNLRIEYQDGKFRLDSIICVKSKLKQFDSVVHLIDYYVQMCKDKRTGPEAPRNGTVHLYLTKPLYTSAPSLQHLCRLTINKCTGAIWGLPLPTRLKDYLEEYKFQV
T1 sequence (Q15370 1-104 partner limits assumed): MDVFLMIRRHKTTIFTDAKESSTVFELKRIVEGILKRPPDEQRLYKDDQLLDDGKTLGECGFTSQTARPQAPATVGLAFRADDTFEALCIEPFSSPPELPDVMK
T1 sequence (Q15369 17-112 partner limits assumed): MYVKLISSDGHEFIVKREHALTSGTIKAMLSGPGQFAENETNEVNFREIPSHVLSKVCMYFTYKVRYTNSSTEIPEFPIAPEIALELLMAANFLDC

## O=C(CCl)Nc1cccc(CNC(=O)[C@H](Cc2ccc(OP(=O)(O)O)cc2)NC(=O)Cc2ccc(F)cc2)c1 [MN551]
MN551 48.4003 nM, Cycle 2 (5 min)
  Fb, fraction bound: 1.049 and 0.9991 and 1.04
[1]
  Anisotropy: 281.3 and 275.7 and 274.4
  Fb: 1.033 and 1.011 and 0.9942
MN551 48.4003 nM, Cycle 19 (90 min), n=1
  Anisotropy normalised (0 nM MN551 = 1, free probe = 0): 1.03 and 1.015 (2×)
MN551 48.4003 nM, Cycle 20 (95 min), n=1
  Anisotropy normalised (0 nM MN551 = 1, free probe = 0): 1.011 and 0.999 and 0.9749
MN551 48.8281 nM
  Anisotropy based on Raw Data (485): 280.9 and 281.7 and 280.6
MN551 48.8281 nM, Cycle 2 (5 min)
  Fb, fraction bound: 1.013 and 1.049 and 1.036
MN551 48.8281 nM, Cycle 11 (50 min)
  Anisotropy: 280 and 280.2 and 277
MN551 48.8281 nM, Cycle 12 (55 min)
  Anisotropy: 279.7 and 280.1 and 278.6
MN551 48.8281 nM, Cycle 18 (85 min), n=1
  Anisotropy data 485,520,520: 276.3 and 276.1 and 275.6
MN551 67.7604 nM
  Anisotropy based on Raw Data (485): 278.6 and 278.4 and 280
MN551 67.7604 nM, Cycle 13 (60 min), n=1
  Normalised anisotropy (0 nM MN551 = 1, free probe = 0): 1.005 and 0.9558 and 1.011
MN551 67.7604 nM, Cycle 14 (65 min), n=1
  Normalised anisotropy (0 nM MN551 = 1, free probe = 0): 1.03 and 1.001 and 1.016
MN551 67.7604 nM, Cycle 2 (5 min)
  Fb, fraction bound: 1.032 and 1.001 and 1.045
MN551 67.7604 nM, Cycle 3 (10 min)
  Fb, fraction bound: 1.036
[2]
  Anisotropy: 277.4 and 276.4 and 273
  Fb: 0.9963 and 1.017 and 0.9808
MN551 67.7604 nM, Cycle 19 (90 min), n=1
  Anisotropy normalised (0 nM MN551 = 1, free probe = 0): 1.021 and 1.031 and 0.9864
MN551 67.7604 nM, Cycle 20 (95 min), n=1
  Anisotropy normalised (0 nM MN551 = 1, free probe = 0): 0.999 and 0.9767 and 0.9903
MN551 94.8645 nM
  Anisotropy based on Raw Data (485): 276.5 and 276.4 and 275
MN551 94.8645 nM, Cycle 13 (60 min), n=1
  Normalised anisotropy (0 nM MN551 = 1, free probe = 0): 0.9841 and 0.9576 and 0.9759
MN551 94.8645 nM, Cycle 14 (65 min), n=1
  Normalised anisotropy (0 nM MN551 = 1, free probe = 0): 1.002 and 0.9934 and 0.9731
MN551 94.8645 nM, Cycle 15 (70 min), n=1
  Normalised anisotropy (0 nM MN551 = 1, free probe = 0): 1.0078
MN551 94.8645 nM, Cycle 2 (5 min)
  Fb, fraction bound: 1.026 and 1.011 and 0.9914
MN551 94.8645 nM, Cycle 3 (10 min)
  Fb, fraction bound: 1.0139 and 1.041 and 0.9705
MN551 94.8645 nM, Cycle 6 (25 min)
  Anisotropy data 485,520,520: 273.7 and 266.4 and 265.9
[3]
  Anisotropy: 274 and 273.4 and 270.5
  Fb: 0.9646 and 0.9885 and 0.9568
MN551 94.8645 nM, Cycle 19 (90 min), n=1
  Anisotropy normalised (0 nM MN551 = 1, free probe = 0): 0.9933 and 1.003 and 0.9475
MN551 94.8645 nM, Cycle 20 (95 min), n=1
  Anisotropy normalised (0 nM MN551 = 1, free probe = 0): 0.9691 and 0.9574 and 0.9304
MN551 97.6562 nM
  Anisotropy based on Raw Data (485): 278.3 and 282.9 and 277.5
MN551 97.6562 nM, Cycle 2 (5 min)
  Fb, fraction bound: 1.002 and 1.056 and 1.014
MN551 97.6562 nM, Cycle 11 (50 min)
  Anisotropy: 278.8 and 281.3 and 277
MN551 97.6562 nM, Cycle 12 (55 min)
  Anisotropy: 279.1 and 279.7 and 276.5
MN551 97.6562 nM, Cycle 18 (85 min), n=1
  Anisotropy data 485,520,520: 274.3 and 275.7 and 270.8
MN551 132.81 nM
  Anisotropy based on Raw Data (485): 277.4 and 277.3 and 272.7
MN551 132.81 nM, Cycle 13 (60 min), n=1
  Normalised anisotropy (0 nM MN551 = 1, free probe = 0): 0.9411 and 0.9327 and 0.945
MN551 132.81 nM, Cycle 14 (65 min), n=1
  Normalised anisotropy (0 nM MN551 = 1, free probe = 0): 0.9679 and 0.9614 and 0.9597
MN551 132.81 nM, Cycle 15 (70 min), n=1
  Normalised anisotropy (0 nM MN551 = 1, free probe = 0): 0.9669 and 0.9677 and 0.9327
MN551 132.81 nM, Cycle 2 (5 min)
  Fb, fraction bound: 1.001 and 1.004 and 1.003
MN551 132.81 nM, Cycle 3 (10 min)
  Fb, fraction bound: 0.9889 and 1.004 and 0.9829
[4]
  Anisotropy data 485,520,520: 272.9 and 266.7 and 268.7
  Fb: 1.0105 and 1.013 and 1.036
[5]
  Anisotropy: 272.8 and 270.5 and 270
  Fb: 0.9534 and 0.9607 and 0.952
MN551 132.81 nM, Cycle 19 (90 min), n=1
  Anisotropy normalised (0 nM MN551 = 1, free probe = 0): 0.9528 and 0.958 and 0.9524
MN551 132.81 nM, Cycle 20 (95 min), n=1
  Anisotropy normalised (0 nM MN551 = 1, free probe = 0): 0.9516 and 0.9273 and 0.9285
MN551 185.934 nM
  Anisotropy based on Raw Data (485): 278.1 and 275.4 and 274.1
MN551 185.934 nM, Cycle 13 (60 min), n=1
  Normalised anisotropy (0 nM MN551 = 1, free probe = 0): 0.927 and 0.9051 and 0.9324
MN551 185.934 nM, Cycle 14 (65 min), n=1
  Normalised anisotropy (0 nM MN551 = 1, free probe = 0): 0.9406 and 0.935 and 0.929
MN551 185.934 nM, Cycle 15 (70 min), n=1
  Normalised anisotropy (0 nM MN551 = 1, free probe = 0): 0.9561 and 0.9184 and 0.9202
MN551 185.934 nM, Cycle 3 (10 min)
  Fb, fraction bound: 0.9759 and 0.9879 and 0.9619
[6]
  Anisotropy data 485,520,520: 271.2 and 265.9 and 264.5
  Fb: 1.005 and 0.998 and 1.018
[7]
  Anisotropy: 270.4 and 269.3 and 268.1
  Fb: 0.931 and 0.9492 and 0.9338
MN551 185.934 nM, Cycle 19 (90 min), n=1
  Anisotropy normalised (0 nM MN551 = 1, free probe = 0): 0.9172 and 0.936 and 0.9397
MN551 185.934 nM, Cycle 20 (95 min), n=1
  Anisotropy normalised (0 nM MN551 = 1, free probe = 0): 0.9014 and 0.9041 and 0.8899
MN551 195.312 nM
  Anisotropy based on Raw Data (485): 281 and 276.5 and 273
MN551 195.312 nM, Cycle 2 (5 min)
  Fb, fraction bound: 0.9639 and 1.006 and 1.008
MN551 195.312 nM, Cycle 12 (55 min)
  Anisotropy: 272.9 and 273.5 and 273
MN551 260.308 nM
  Anisotropy based on Raw Data (485): 270.2 and 268.2 and 264.5
MN551 260.308 nM, Cycle 13 (60 min), n=1
  Normalised anisotropy (0 nM MN551 = 1, free probe = 0): 0.8241 and 0.8101 and 0.8658
MN551 260.308 nM, Cycle 14 (65 min), n=1
  Normalised anisotropy (0 nM MN551 = 1, free probe = 0): 0.8651 and 0.8427 and 0.8474
MN551 260.308 nM, Cycle 15 (70 min), n=1
  Normalised anisotropy (0 nM MN551 = 1, free probe = 0): 0.8655 and 0.8321 and 0.8452
MN551 260.308 nM, Cycle 3 (10 min)
  Fb, fraction bound: 0.9027 and 0.9023 and 0.8716
MN551 260.308 nM, Cycle 6 (25 min)
  Anisotropy data 485,520,520: 268.3 and 257.5 and 257.9
